Several values for one entry are separate records, joined by “and”; a condition that tells them apart may be missing. Equal entries are not always repeated. Activity calls are given as the source filed them. The rule behind the calls is not given here.
System: rodent lifetime carcinogenesis bioassay, tumor incidence TD50
Test: carcinogenic potency in animals, long-term in vivo studies, CPDB compilation (AID 1745844)

## O=C1CCc2ccccc2O1
mouse, strain B6C3F1, females, by gavage, site: all sites, lesion: hemangioma + hemangiosarcoma, dosed 103 weeks, study length 104 weeks
  TD50: 4810 mg/kg/day
mouse, strain B6C3F1, females, by gavage, site: all sites, lesion: hemangiosarcoma, dosed 103 weeks, study length 104 weeks
  TD50: 6140 mg/kg/day
mouse, strain B6C3F1, females, by gavage, site: any site (literature study), lesion: several types, types named in the paper, dosed 103 weeks, study length 104 weeks
  TD50: 541 mg/kg/day
mouse, strain B6C3F1, females, by gavage, site: liver, lesion: hepatocellular adenoma + hepatoblastoma + hepatocellular carcinoma, dosed 103 weeks, study length 104 weeks
  TD50: 723 mg/kg/day
mouse, strain B6C3F1, females, by gavage, site: liver, lesion: hepatocellular adenoma + hepatocellular carcinoma, dosed 103 weeks, study length 104 weeks
  TD50: 723 mg/kg/day
mouse, strain B6C3F1, females, by gavage, site: liver, lesion: hepatocellular adenoma, dosed 103 weeks, study length 104 weeks
  TD50: 790 mg/kg/day
mouse, strain B6C3F1, females, by gavage, site: lung, lesion: alveolar/bronchiolar adenoma + alveolar/bronchiolar carcinoma, dosed 103 weeks, study length 104 weeks
  TD50: 96100 mg/kg/day
mouse, strain B6C3F1, males, by gavage, site: all sites, lesion: histiocytic sarcoma + malignant lymphoma, histiocytic type + malignant lymphoma, lymphocytic type + malignant lymphoma, dosed 103 weeks, study length 104 weeks
  TD50: 3320 mg/kg/day
mouse, strain B6C3F1, males, by gavage, site: all sites, lesion: malignant lymphoma, histiocytic type + malignant lymphoma, mixed type + malignant lymphoma, lymphocytic type + malignant lymph, dosed 103 weeks, study length 104 weeks
  TD50: 3780 mg/kg/day (inactive)
mouse, strain B6C3F1, males, by gavage, site: any site (literature study), lesion: several types, types named in the paper, dosed 103 weeks, study length 104 weeks
  TD50: 1400 mg/kg/day
mouse, strain B6C3F1, males, by gavage, site: liver, lesion: hepatocellular adenoma + hepatoblastoma + hepatocellular carcinoma, dosed 103 weeks, study length 104 weeks
  TD50: 2890 mg/kg/day
mouse, strain B6C3F1, males, by gavage, site: lung, lesion: alveolar/bronchiolar adenoma + alveolar/bronchiolar carcinoma, dosed 103 weeks, study length 104 weeks
  TD50: 3260 mg/kg/day
mouse, strain B6C3F1, males, by gavage, site: lung, lesion: alveolar/bronchiolar adenoma, dosed 103 weeks, study length 104 weeks
  TD50: 596 mg/kg/day
rat, strain Fischer 344, females, by gavage, site: adrenal medulla, lesion: pheochromocytoma benign, bilateral + pheochromocytoma, benign, dosed 103 weeks, study length 104 weeks
  TD50: 538 mg/kg/day (inactive)
rat, strain Fischer 344, females, by gavage, site: any site (literature study), lesion: several types, types named in the paper, dosed 103 weeks, study length 104 weeks
  TD50: 3180 mg/kg/day
rat, strain Fischer 344, males, by gavage, site: any site (literature study), lesion: several types, types named in the paper, dosed 38 weeks, study length 104 weeks
  TD50: 1370 mg/kg/day
rat, strain Fischer 344, males, by gavage, site: any site (literature study), lesion: several types, types named in the paper, dosed 64 weeks, study length 104 weeks
  TD50: 186 mg/kg/day
rat, strain Fischer 344, males, by gavage, site: any site (literature study), lesion: several types, types named in the paper, dosed 103 weeks, study length 104 weeks
  TD50: 143 mg/kg/day
rat, strain Fischer 344, males, by gavage, site: kidney, lesion: transitional-cell carcinoma, dosed 103 weeks, study length 104 weeks
  TD50: 11800 mg/kg/day
rat, strain Fischer 344, males, by gavage, site: kidney, lesion: tubule adenoma, dosed 38 weeks, study length 104 weeks
  TD50: 310 mg/kg/day
rat, strain Fischer 344, males, by gavage, site: kidney, lesion: tubule adenoma, dosed 64 weeks, study length 104 weeks
  TD50: 408 mg/kg/day
rat, strain Fischer 344, males, by gavage, site: kidney, lesion: tubule adenoma, dosed 103 weeks, study length 104 weeks
  TD50: 3870 mg/kg/day and 2970 mg/kg/day
rat, strain Fischer 344, males, by gavage, site: liver, lesion: hepatocellular adenoma + hepatoblastoma + hepatocellular carcinoma, dosed 38 weeks, study length 104 weeks
  TD50: 819 mg/kg/day
rat, strain Fischer 344, males, by gavage, site: liver, lesion: hepatocellular adenoma + hepatoblastoma + hepatocellular carcinoma, dosed 103 weeks, study length 104 weeks
  TD50: 1380 mg/kg/day
rat, strain Fischer 344, males, by gavage, site: skin, lesion: basal-cell adenoma + keratoacanthoma + squamous-cell papilloma, dosed 64 weeks, study length 104 weeks
  TD50: 258 mg/kg/day
rat, strain Fischer 344, males, by gavage, site: skin, lesion: basal-cell adenoma, dosed 64 weeks, study length 104 weeks
  TD50: 378 mg/kg/day
rat, strain Fischer 344, males, by gavage, site: skin, lesion: fibroma, dosed 64 weeks, study length 104 weeks
  TD50: 403 mg/kg/day
rat, strain Fischer 344, males, by gavage, site: testis, lesion: interstitial-cell adenoma, dosed 64 weeks, study length 104 weeks
  TD50: 51.7 mg/kg/day
rat, strain Fischer 344, males, by gavage, site: testis, lesion: interstitial-cell adenoma, dosed 103 weeks, study length 104 weeks
  TD50: 70.6 mg/kg/day

## Cc1cc(Cc2ccc(N)c(C)c2)ccc1N
rat, strain Charles River CD (Sprague-Dawley), females, in feed, site: liver, lesion: cholangiocarcinoma, dosed 82 weeks, study length 82 weeks
  TD50: 96.3 mg/kg/day
rat, strain Charles River CD (Sprague-Dawley), females, in feed, site: liver, lesion: hepatocellular adenoma, dosed 82 weeks, study length 82 weeks
  TD50: 30.5 mg/kg/day
rat, strain Charles River CD (Sprague-Dawley), females, in feed, site: liver, lesion: hepatocellular carcinoma, dosed 82 weeks, study length 82 weeks
  TD50: 7.92 mg/kg/day
rat, strain Charles River CD (Sprague-Dawley), males, in feed, site: liver, lesion: hemangioma, dosed 68 weeks, study length 68 weeks
  TD50: 35.2 mg/kg/day
rat, strain Charles River CD (Sprague-Dawley), males, in feed, site: liver, lesion: hepatocellular adenoma, dosed 68 weeks, study length 68 weeks
  TD50: 17 mg/kg/day
rat, strain Charles River CD (Sprague-Dawley), males, in feed, site: liver, lesion: hepatocellular carcinoma, dosed 68 weeks, study length 68 weeks
  TD50: 12.4 mg/kg/day
rat, strain Charles River CD (Sprague-Dawley), males, in feed, site: mammary gland, lesion: fibroadenoma, dosed 68 weeks, study length 68 weeks
  TD50: 6.91 mg/kg/day
rat, strain Charles River CD (Sprague-Dawley), males, in feed, site: skin, lesion: fibroma, dosed 68 weeks, study length 68 weeks
  TD50: 8.19 mg/kg/day

## CC(=O)NCc1nc(-c2ccc([N+](=O)[O-])o2)no1
rat, strain Sprague-Dawley, females, in feed, site: any site (literature study), lesion: several types, types named in the paper, dosed 46 weeks, study length 66 weeks
  TD50: 5.2 mg/kg/day
rat, strain Sprague-Dawley, females, in feed, site: kidney/pelvis, lesion: transitional-cell carcinoma, dosed 46 weeks, study length 66 weeks
  TD50: 59.6 mg/kg/day
rat, strain Sprague-Dawley, females, in feed, site: lung, lesion: alveolar-cell carcinoma, dosed 46 weeks, study length 66 weeks
  TD50: 59.6 mg/kg/day
rat, strain Sprague-Dawley, females, in feed, site: mammary gland, lesion: adenocarcinoma, dosed 46 weeks, study length 66 weeks
  TD50: 10.3 mg/kg/day
rat, strain Sprague-Dawley, females, in feed, site: mammary gland, lesion: several types, types named in the paper, dosed 46 weeks, study length 66 weeks
  TD50: 6.35 mg/kg/day

## CN(C)c1ccc(N=NS(=O)(=O)O)cc1
mouse, strain B6C3F1, females, in feed, site: any site (literature study), lesion: several types, types named in the paper, dosed 78 weeks, study length 95 weeks
  TD50: 259 mg/kg/day
mouse, strain B6C3F1, females, in feed, site: liver, lesion: hepatocellular adenoma + hepatocellular carcinoma + neoplastic nodule, dosed 78 weeks, study length 95 weeks
  TD50: 152 mg/kg/day
mouse, strain B6C3F1, females, in feed, site: liver, lesion: hepatocellular adenoma + hepatocellular carcinoma, dosed 78 weeks, study length 95 weeks
  TD50: 152 mg/kg/day (inactive)
mouse, strain B6C3F1, females, in feed, site: lung, lesion: alveolar/bronchiolar adenoma + alveolar/bronchiolar carcinoma, dosed 78 weeks, study length 95 weeks
  TD50: 1750 mg/kg/day
mouse, strain B6C3F1, males, in feed, site: any site (literature study), lesion: several types, types named in the paper, dosed 78 weeks, study length 94 weeks
  carcinogen call: negative (inactive)
rat, strain Fischer 344, females, in feed, site: any site (literature study), lesion: several types, types named in the paper, dosed 78 weeks, study length 105 weeks
  carcinogen call: negative (inactive)
rat, strain Fischer 344, males, in feed, site: any site (literature study), lesion: several types, types named in the paper, dosed 78 weeks, study length 105 weeks
  carcinogen call: negative (inactive)
